Measurements from ChEMBL document CHEMBL3046784, “Exploring QSAR of antiamoebic agents of isolated natural products by MLR, ANN, and RTO” (Med Chem Res, 2012).
Converted amounts (≈) assume the structure as drawn.

tested on: Entamoeba histolytica; assay: Antiamoebic activity against Entamoeba histolytica; type: functional, organism-based; details: Entamoeba histolytica; read-out: IC50

| SMILES | IC50 |
| --- | --- |
| O=C(O)C1=CO[C@H](O[C@@H]2O[C@H](CO)[C@@H](O)[C@H](O)[C@H]2O)[C@H]2[C@@H]1C=C[C@@]21C=C(C(O)c2ccc(O)cc2)C(=O)O1 (stereo not given in full) [GAERTNERIC ACID] | 7.1 µg/mL (≈ 13.3 µM) |
| COC(=O)C1=CO[C@H](O[C@@H]2O[C@H](CO)[C@@H](O)[C@H](O)[C@H]2O)[C@H]2[C@@H]1C=C[C@@]21C=C(C(O)c2ccc(O)cc2)C(=O)O1 (stereo not given in full) [GAERTNEROSIDE] | 4.3 µg/mL (≈ 7.84 µM) |
| O=c1c(O)c(-c2ccccc2)oc2cc(O)cc(O)c12 [GALANGIN] | 159 µg/mL (≈ 587 µM) |
| COC(=O)c1cc(O)c(O)c(O)c1 [GALLIC ACID METHYL ESTER] | 22.6 µg/mL (≈ 123 µM) |
| O=c1cc(-c2ccc(O)c(O)c2)oc2cc(O[C@@H]3O[C@H](CO)[C@@H](O)[C@H](O)[C@H]3O)cc(O)c12 [GALUTEOLIN] | 44.7 µg/mL (≈ 99.7 µM) |
| Oc1ccc([C@]23Oc4cc(O)cc(O)c4[C@H](c4c(cc(O)c5c4O[C@H](c4cc(O)c(O)c(O)c4)[C@@H](O)C5)O2)[C@H]3O)cc1 [GERANIN C] | 52 µg/mL (≈ 90.2 µM) |
| Oc1ccc([C@H]2Oc3c(c(O)cc4c3[C@H]3c5c(O)cc6c(c5O[C@@](c5ccc(O)cc5)(O4)[C@@H]3O)[C@H]3c4c(O)cc(O)cc4O[C@@](c4ccc(O)cc4)(O6)[C@H]3O)C[C@@H]2O)cc1 [GERANIN D] | 28.6 µg/mL (≈ 35.1 µM) |
| CC[C@](C)(O)C(=O)O[C@H]1C(=O)O[C@@H]2C[C@H]3C(C)=CC(=O)[C@@H](O)[C@]3(C)[C@H]3[C@@]4(O)OC[C@]32[C@@H]1[C@@H](C)[C@H]4O [GLAUCARUBINONE] | 0.168 µg/mL (≈ 0.34 µM) |
| CC[C@](C)(O)C(=O)O[C@H]1C(=O)O[C@@H]2C[C@H]3C(C)=C[C@H](O)[C@@H](O)[C@]3(C)[C@H]3[C@]4(O)OC[C@]32[C@@H]1[C@@H](C)[C@H]4O [GLAUCARUBIN] | 1.57 µg/mL (≈ 3.16 µM) |
| CC1=CC(=O)[C@@H](O)[C@]2(C)[C@H]3[C@]4(O)OC[C@]35[C@H]([C@@H](C)[C@H]4O)[C@@H](O)C(=O)O[C@@H]5C[C@@H]12 [GLAUCARUBOLONE] | 0.12 µg/mL (≈ 0.304 µM) |
| CC1=C[C@H](O)[C@@H](O)[C@]2(C)[C@H]3[C@@]4(O)OC[C@]35[C@H]([C@@H](C)[C@H]4O)[C@@H](O)C(=O)O[C@@H]5C[C@@H]12 [GLAUCARUBOL] | 2 µg/mL (≈ 5.04 µM) |
| Cc1cc2c(C(C)C)c(O)c(O)c(C=O)c2c(O)c1-c1c(C)cc2c(C(C)C)c(O)c(O)c(C=O)c2c1O [GOSSYPOL] | 0.00777 µg/mL (≈ 0.015 µM) |
| CC(=O)O[C@H]1C(=O)O[C@@H]2C[C@H]3C(C)=CC(=O)[C@@H](O)[C@]3(C)[C@H]3[C@]4(O)OC[C@]32[C@@H]1[C@@H](C)[C@H]4O [HOLACANTHONE] | 0.162 µg/mL (≈ 0.371 µM) |
| C[C@@H]1N=C[C@]23C[C@@H](O)[C@H]4[C@@H](CCC5=CC(=O)C=C[C@@]54C)[C@@H]2CC[C@H]13 [HOLANAMINE] | 3.96 µg/mL (≈ 12.2 µM) |
| C/C=C1/CN(C)CC[C@]23C(=O)C[C@@H]1[C@H]1CO[C@H](O)C(=O)N(c4ccccc42)[C@@H]13 [HOLSTIINE] | 24.8 µg/mL (≈ 64.9 µM) |
| C/C=C1\CN(C)CC[C@]23C(=O)C[C@@H]1[C@H]1CO[C@H](OC)C(=O)N(c4ccccc42)[C@@H]13 [HOLSTILINE] | 24.9 µg/mL (≈ 62.9 µM) |
| COc1ccc2cc1Oc1ccc(cc1)C[C@H]1c3c(cc(OC)c(O)c3Oc3cc4c(cc3OC)CCN(C)[C@@H]4C2)CCN1C [HOMOAROMOLINE] | 10.5 µg/mL (≈ 17.3 µM) |
| O=c1c(O[C@@H]2O[C@H](CO)[C@H](O)[C@H](O)[C@H]2O)c(-c2ccc(O)c(O)c2)oc2cc(O)cc(O)c12 [HYPEROSIDE] | 144 µg/mL (≈ 309 µM) |
| COc1cc2c3c(c1OC)Oc1ccc(cc1)C[C@H]1c4c(cc(OC)c5c4Oc4ccc(cc4O5)C[C@H]3N(C)CC2)CCN1C [INSULARINE] | 6.88 µg/mL (≈ 11.3 µM) |
| COc1cc2c3c(c1O)Oc1ccc(cc1)C[C@@H]1c4c(cc(OC)c(O)c4Oc4ccc(cc4)C[C@H]3N(C)CC2)CCN1C [ISOCHONDODENDRINE] | 10.5 µg/mL (≈ 17.7 µM) |

| SMILES | IC50 |
| --- | --- |
| CN[C@H]1CC[C@@]2(C)C(=CC[C@H]3[C@@H]4CC[C@@H]5[C@H](C)N(C)C[C@@]54CC[C@@H]32)C1 [ISOCONESSIMINE] | 20.9 µg/mL (≈ 61 µM) |
| COc1ccc2c(c1O)-c1c(OC)c(OC)cc3c1[C@H](C2)N(C)CC3 [ISOCORYDINE] | 50.1 µg/mL (≈ 147 µM) |
| C/C=C1/CN2CC[C@]34c5ccccc5N(C(C)=O)[C@H]3[C@H](C=O)[C@H]1C[C@H]24 [ISORETULINAL] | 24.1 µg/mL (≈ 71.8 µM) |
| C/C=C1/CN2CC[C@]34c5ccccc5N(C(C)=O)C3[C@H](CO)[C@H]1C[C@H]24 (stereo not given in full) [ISORETULINE] | 21.9 µg/mL (≈ 64.7 µM) |
| C/C=C1/CN2CC[C@]34c5ccccc5N(C(C)=O)[C@H]3[C@H]([C@H]3OC[C@@H]5[C@H]6C[C@@H]7N(CC[C@@]78c7ccccc7N3[C@@H]58)C[C@H]6CC)[C@H]1C[C@H]24 [ISOSTRYCHNOBILINE] | 20.9 µg/mL (≈ 33.8 µM) |
| CC[C@H]1CN2CCC3c4ccc(O)c([C@@H]5CCCN5C)c4NC3[C@@H]2C[C@@H]1C[C@H]1c2[nH]c3ccccc3c2CCN1C (stereo not given in full) [ISOSTRYCHNOPENTAMINE] | 10.4 µg/mL (≈ 18.8 µM) |
| COc1ccc2cc1Oc1ccc(cc1)C[C@@H]1c3cc(c(OC)cc3CCN1C)Oc1c(OC)c(OC)cc3c1[C@H](C2)N(C)CC3 [ISOTETRANDRINE] | 13.8 µg/mL (≈ 22.2 µM) |
| COc1ccc2cc1Oc1ccc(cc1)C[C@H]1c3c(cc(OC)c4c3Oc3cc5c(cc3O4)CCN(C)[C@H]5C2)CCN1C [ISOTRILOBINE] | 6.22 µg/mL (≈ 10.8 µM) |
| C[C@H]1O[C@H](Oc2c(-c3ccc(O)cc3)oc3cc(O)cc(O)c3c2=O)[C@@H](O)[C@@H](O)[C@@H]1O [KAEMPFEROL-3-O-RHAMNOSIDE] | 64.7 µg/mL (≈ 150 µM) |
| C[C@H]1O[C@H](OC[C@H]2O[C@@H](Oc3c(-c4ccc(O)cc4)oc4cc(O)cc(O)c4c3=O)[C@H](O)[C@@H](O)[C@@H]2O)[C@@H](O)[C@@H](O)[C@@H]1O [KAEMPFEROL-3-O-RUTINOSIDE] | 72.5 µg/mL (≈ 122 µM) |
| C[C@H]1O[C@H](OC[C@H]2O[C@@H](Oc3cc(O)c4c(=O)c(O)c(-c5ccc(O)cc5)oc4c3)[C@H](O[C@@H]3O[C@H](CO)[C@@H](O)[C@H](O)[C@H]3O)[C@@H](O)[C@@H]2O)[C@@H](O)[C@@H](O)[C@@H]1O [KAEMPFEROL-7-O-RHAMNOSYL-SOPHOROSIDE] | > 125 µg/mL |
| O=c1c(O)c(-c2ccc(O)cc2)oc2cc(O)cc(O)c12 [KAEMPFEROL] | 7.93 µg/mL (≈ 27.7 µM) |
| O=c1cc(-c2ccc(O)c(O)c2)oc2cc(O)cc(O)c12 [LUTEOLIN] | 17.8 µg/mL (≈ 62.2 µM) |
| O=C(O)/C=C/c1ccccc1O[C@@H]1O[C@H](CO)[C@@H](O)[C@H](O)[C@H]1O [MELILOTOSIDE] | 12.5 µg/mL (≈ 38.3 µM) |
| COC(=O)C1=CO[C@@H](O[C@@H]2O[C@H](CO)[C@@H](O)[C@H](O)[C@H]2O)[C@H]2[C@@H]1C=C[C@@]21C=C(C(O)c2ccc(O)c(OC)c2)C(=O)O1 (stereo not given in full) [METHOXY-GAERTNEROSIDE] | 2.3 µg/mL (≈ 3.98 µM) |
| CO[C@H]1[C@H](O)[C@@H](O)[C@@H](O)[C@H](O)[C@@H]1O [METHYLINOSITOL] | 16.6 µg/mL (≈ 85.4 µM) |
| COc1ccc(/C=C/C(=O)O[C@H]2[C@@H]3C=CO[C@@H](O[C@@H]4O[C@H](CO)[C@@H](O)[C@H](O)[C@H]4O)[C@@H]3[C@@]3(CO)O[C@@H]23)cc1O [MINECOSIDE] | 0.398 µg/mL (≈ 0.739 µM) |
| O=c1c(O)c(-c2cc(O)c(O)c(O)c2)oc2cc(O)cc(O)c12 [MYRICETIN] | 115 µg/mL (≈ 362 µM) |
| O=C1C[C@@H](c2ccc(O)cc2)Oc2cc(O)cc(O)c21 [NARINGENIN] | 92.2 µg/mL (≈ 339 µM) |
| C/C=C1/CN2CCc3c(n(C)c4ccccc34)[C@@H]2C[C@@H]1Cc1nccc2c1[nH]c1ccccc12 [NBETA-METHYL USAMBARENSINE] | 4.12 µg/mL (≈ 9.23 µM) |

| SMILES | IC50 |
| --- | --- |
| COc1cc2c3c(c1O)-c1c(ccc(OC)c1OC)C[C@@H]3NCC2 [NORCORYDINE] | 50 µg/mL (≈ 153 µM) |
| C/C=C1/CN2CC[C@]34c5ccccc5N(C(C)=O)[C@H]3[C@H](COC(C)=O)[C@H]1C[C@H]24 [O-ACETYLISORETULINE] | 23.2 µg/mL (≈ 61.1 µM) |
| COc1cc2c3cc1Oc1c(O)c(OC)cc4c1[C@@H](Cc1ccc(O)c(c1)Oc1ccc(cc1)C[C@@H]3N(C)CC2)N(C)CC4 [OBAMEGINE] | 18.3 µg/mL (≈ 30.8 µM) |
| CC[C@H]1CN2CCC3c4ccccc4NC3[C@@H]2C[C@@H]1C[C@H]1NCCc2c1[nH]c1ccccc21 (stereo not given in full) [OCHROLIFUANINE A] | 1.3 µg/mL (≈ 2.95 µM) |
| COc1cc(O)c2c(=O)c(O)c(-c3ccc(OC)c(O)c3)oc2c1 [OMBUINE] | 70.3 µg/mL (≈ 213 µM) |
| COc1ccc2cc1Oc1ccc(cc1)C[C@@H]1c3cc(c(OC)cc3CCN1C)Oc1c(OC)c(OC)cc3c1[C@@H](C2)N(C)CC3 [PHAEANTHINE] | 10.8 µg/mL (≈ 17.4 µM) |
| COc1cc(O)c2c(c1)C(=O)c1cc(C)cc(O)c1C2=O [PHYSCION] | 12.7 µg/mL (≈ 44.7 µM) |
| O=C1C[C@@H](c2ccccc2)Oc2cc(O)cc(O)c21 [PINOCEMBRIN] | 80.8 µg/mL (≈ 315 µM) |
| COc1cc(O)c2c(c1)O[C@H](c1ccccc1)CC2=O [PINOSTROBIN] | 184 µg/mL (≈ 682 µM) |
| CC[C@H]1CN2CCc3cc(OC)c(OC)cc3[C@@H]2C[C@@H]1CC1=NCCc2cc(O)c(OC)cc21 [PSYCHOTRINE] | 8.19 µg/mL (≈ 17.6 µM) |
| COC1=C[C@@H](C)[C@@H]2C[C@H]3OC(=O)C[C@H]4C(C)=C(OC)C(=O)[C@H]([C@@]2(C)C1=O)[C@@]34C [QUASSIN] | 0.5 µg/mL (≈ 1.29 µM) |
| C[C@H]1O[C@H](Oc2c(-c3ccc(O)c(O)c3)oc3cc(O)cc(O)c3c2=O)[C@@H](O)[C@@H](O)[C@@H]1O [QUERCETIN-3-O-RHAMNOSIDE] | 84.7 µg/mL (≈ 189 µM) |
| O=c1c(O)c(-c2ccc(O)c(O)c2)oc2cc(O)cc(O)c12 [QUERCETIN] | 114 µg/mL (≈ 378 µM) |
| C=C[C@H]1CN2CC[C@H]1C[C@@H]2[C@@H](O)c1ccnc2ccc(OC)cc12 [QUINIDINE] | 16.6 µg/mL (≈ 51.2 µM) |
| C=C[C@H]1CN2CC[C@H]1C[C@@H]2C(=O)c1ccnc2ccc(OC)cc12 [QUINIDINONE] | 7.4 µg/mL (≈ 23 µM) |
| C=C[C@H]1CN2CC[C@H]1C[C@H]2[C@H](O)c1ccnc2ccc(OC)cc12 [QUININE] | 14.8 µg/mL (≈ 45.6 µM) |
| C/C=C1/CN2CC[C@]34c5ccccc5N(C(C)=O)[C@H]3[C@@H](C=O)[C@@H]1C[C@H]24 [RETULINAL] | 25.2 µg/mL (≈ 74.9 µM) |
| C/C=C1\CN2CC[C@]34c5ccccc5N(C(C)=O)[C@H]3[C@@H](CO)[C@H]1C[C@H]24 [RETULINE] | 21.9 µg/mL (≈ 64.7 µM) |
| O=c1c(O[C@@H]2OC[C@@H](O)[C@H](O)[C@H]2O)c(-c2ccc(O)c(O)c2)oc2cc(O)cc(O)c12 [REYNOUTRIN] | 109 µg/mL (≈ 251 µM) |
| COC1=C[C@]23CCN(C)[C@H](Cc4ccc(OC)c(O)c42)C3=CC1=O [SALUTARIDINE] | 50 µg/mL (≈ 153 µM) |
